{"source": "patent US20260265301A1", "about": "“LONG-ACTING K-OPIOID RECEPTOR AGONIST” (CHENGDU AODA BIOTECHNOLOGY CO., LTD, priority 2023, published 2026)", "note": "Where a SMILES comes first, the peptide text is derived from it. Bridges are numbered along the chain shown (N, C = ends). Roman numbers before positions name the chains, in order. [ ]: non-standard residue; d: D form. The star is where a group is joined. X1 = O=C(O)CCCCCCCCCCCCCCCCC(=O)N[C@@H](CCC(=O)NCCOCCOCCOCCOCC(=O)*)C(=O)O; Api = NC1(C(=O)O)CCNCC1"}
{"biological_target": "T1, human κ opioid receptor (OPRK1) (Homo sapiens, UniProt P41145)", "T1 construct": "expressed in transfected cells; host or cells: CHO-K1", "T1 sequence (P41145 whole entry)": "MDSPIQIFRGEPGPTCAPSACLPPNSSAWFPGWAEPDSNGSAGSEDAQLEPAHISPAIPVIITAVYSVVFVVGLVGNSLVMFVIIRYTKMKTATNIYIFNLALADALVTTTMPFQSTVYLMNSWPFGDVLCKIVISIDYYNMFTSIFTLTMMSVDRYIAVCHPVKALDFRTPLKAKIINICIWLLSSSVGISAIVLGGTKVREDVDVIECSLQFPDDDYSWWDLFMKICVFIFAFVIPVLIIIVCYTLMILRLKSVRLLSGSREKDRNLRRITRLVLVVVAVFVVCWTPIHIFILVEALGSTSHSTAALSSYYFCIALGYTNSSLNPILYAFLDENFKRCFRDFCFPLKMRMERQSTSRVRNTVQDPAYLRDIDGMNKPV", "test": "Agonist activity: inhibition of forskolin-stimulated cAMP release (HTRF) in CHO-K1 cells stably expressing opioid receptors", "assay_type": "cell-based", "details": "CHO-K1 cell line stably expressing opioid receptors; forskolin-stimulated cAMP, HTRF", "source_text": "(§1) Gi-coupled human κ opioid receptor (OPRK1), upon stimulation with its specific opioid receptor agonists, can inhibit the intracellular adenylate cyclase pathway, and decrease cAMP levels. Forskolin can stimulate cAMP release in cell lines highly expressing opioid receptors. By stimulating cell lines stably transfected with opioid receptors, the inhibitory effect of a test compound on forskolin-stimulated cAMP release can be measured to determine the activity of the compound. The relative light units (RLU) from the cells after stimulation with different doses were measured via the homogeneous time-resolved fluorescence (HTRF) technique, and the EC50 of the agonist was subsequently calculated. This activity determination method is a currently commonly used method for determining the activities of opioid receptor agonists at home and abroad.\n(§2) A CHO-K1 cell line stably expressing opioid receptors was used. Stably transfected cells were stimulated with various concentrations of agonists (under the stimulation of a certain concentration of forskolin). The relative light units from the cells after stimulation with different doses were measured, from which the EC50 value of the agonist was subsequently obtained by calculation.", "units": {"EC50": "nM"}}
{"molecule": "CC(C)C[C@@H](NC(=O)[C@@H](Cc1ccccc1)NC(=O)[C@H](N)Cc1ccccc1)C(=O)N[C@H](CCCCN)C(=O)N1CCC(N)(C(=O)O)CC1", "note": "[Difelikefalin, reference compound]", "EC50": 0.653}
{"biological_target": "T1, human κ opioid receptor (OPRK1)", "test": "Agonist activity: inhibition of forskolin-stimulated cAMP release (HTRF) in CHO-K1 cells stably expressing opioid receptors", "assay_type": "cell-based", "details": "relative to Difelikefalin = 100%", "source_text": "as §1, §2", "units": {"Relative Activity %": "%"}}
{"molecule": "CCOc1ccc(C[C@@H](NC(=O)[C@H](N)Cc2ccccc2)C(=O)N[C@H](CC(C)C)C(=O)N[C@H](CCCCN)C(=O)N2CCC(N)(C(=O)N[C@@H](CCCCNC(=O)COCCOCCOCCOCCNC(=O)CC[C@H](NC(=O)CCCCCCCCCCCCCCCCC(=O)O)C(=O)O)C(N)=O)CC2)cc1", "note": "[Compound 1, D-Phe-D-Tyr(Et)-D-Leu-D-Lys-4-aminopiperidine-4-carboxamide-Lys(PEG4CH2CO-γGlu-octadecanedioic acid)-NH2]", "Relative Activity %": 15.6}
{"molecule": "CCOc1ccc(C[C@@H](NC(=O)[C@H](N)Cc2ccccc2)C(=O)N[C@H](CC(C)C)C(=O)N[C@H](CCCCN)C(=O)N2CCC(N)(C(=O)NCCOCC(=O)N[C@@H](CCCCNC(=O)COCCOCCOCCOCCNC(=O)CC[C@H](NC(=O)CCCCCCCCCCCCCCCCC(=O)O)C(=O)O)C(N)=O)CC2)cc1", "note": "[Compound 2, D-Phe-D-Tyr(Et)-D-Leu-D-Lys-4-aminopiperidine-4-carboxamide-PEG1CH2CO-Lys(PEG4CH2CO-γGlu-octadecanedioic acid)-NH2]", "Relative Activity %": 20.7}
{"molecule": "CCOc1ccc(C[C@@H](NC(=O)[C@H](N)Cc2ccccc2)C(=O)N[C@H](CC(C)C)C(=O)N[C@H](CCCCN)C(=O)N2CCC(N)(C(=O)NCCOCCOCC(=O)N[C@@H](CCCCNC(=O)COCCOCCOCCOCCNC(=O)CC[C@H](NC(=O)CCCCCCCCCCCCCCCCC(=O)O)C(=O)O)C(N)=O)CC2)cc1", "note": "[Compound 3, D-Phe-D-Tyr(Et)-D-Leu-D-Lys-4-aminopiperidine-4-carboxamide-AEEA-Lys(PEG4CH2CO-γGlu-octadecanedioic acid)-NH2]", "Relative Activity %": 23.8}
{"molecule": "CCOc1ccc(C[C@@H](NC(=O)[C@H](N)Cc2ccccc2)C(=O)N[C@H](CC(C)C)C(=O)N[C@H](CCCCN)C(=O)N2CCC(N)(C(=O)NCCOCCOCCOCCOCC(=O)N[C@@H](CCCCNC(=O)COCCOCCOCCOCCNC(=O)CC[C@H](NC(=O)CCCCCCCCCCCCCCCCC(=O)O)C(=O)O)C(N)=O)CC2)cc1", "note": "[Compound 4, D-Phe-D-Tyr(Et)-D-Leu-D-Lys-4-aminopiperidine-4-carboxamide-PEG4CH2CO-Lys(PEG4CH2CO-γGlu-octadecanedioic acid)-NH2]", "Relative Activity %": 17.2}
{"molecule": "COc1ccc(C[C@@H](NC(=O)[C@H](N)Cc2ccccc2)C(=O)N[C@H](CC(C)C)C(=O)N[C@H](CCCCN)C(=O)N2CCC(N)(C(=O)NCCOCCOCC(=O)N[C@@H](CCCCNC(=O)COCCOCCOCCOCCNC(=O)CC[C@H](NC(=O)CCCCCCCCCCCCCCCCC(=O)O)C(=O)O)C(N)=O)CC2)cc1", "note": "[Compound 5, D-Phe-D-Tyr(Me)-D-Leu-D-Lys-4-aminopiperidine-4-carboxamide-AEEA-Lys(PEG4CH2CO-γGlu-octadecanedioic acid)-NH2]", "Relative Activity %": 13.6}
{"molecule": "CC(C)C[C@@H](NC(=O)[C@@H](Cc1ccc(Cl)cc1)NC(=O)[C@H](N)Cc1ccccc1)C(=O)N[C@H](CCCCN)C(=O)N1CCC(N)(C(=O)NCCOCCOCC(=O)N[C@@H](CCCCNC(=O)COCCOCCOCCOCCNC(=O)CC[C@H](NC(=O)CCCCCCCCCCCCCCCCC(=O)O)C(=O)O)C(N)=O)CC1", "note": "[Compound 6, D-Phe-D-Phe(4-Cl)-D-Leu-D-Lys-4-aminopiperidine-4-carboxamide-AEEA-Lys(PEG4CH2CO-γGlu-octadecanedioic acid)-NH2]", "Relative Activity %": 12.2}
{"molecule": "CC(C)C[C@@H](NC(=O)[C@@H](Cc1ccc(F)cc1)NC(=O)[C@H](N)Cc1ccccc1)C(=O)N[C@H](CCCCN)C(=O)N1CCC(N)(C(=O)NCCOCCOCC(=O)N[C@@H](CCCCNC(=O)COCCOCCOCCOCCNC(=O)CC[C@H](NC(=O)CCCCCCCCCCCCCCCCC(=O)O)C(=O)O)C(N)=O)CC1", "note": "[Compound 7, D-Phe-D-Phe(4-F)-D-Leu-D-Lys-4-aminopiperidine-4-carboxamide-AEEA-Lys(PEG4CH2CO-γGlu-octadecanedioic acid)-NH2]", "Relative Activity %": 10.5}
{"molecule": "CCOc1ccc(C[C@@H](NC(=O)[C@H](N)Cc2ccccc2)C(=O)N[C@H](CC(C)C)C(=O)N[C@H](CCCCN)C(=O)N2CCC(N)(C(=O)NCCOCCOCC(=O)N[C@@H](CCCCNC(=O)COCCOCCOCCNC(=O)CC[C@H](NC(=O)CCCCCCCCCCCCCCCCC(=O)O)C(=O)O)C(N)=O)CC2)cc1", "note": "[Compound 8, D-Phe-D-Tyr(Et)-D-Leu-D-Lys-4-aminopiperidine-4-carboxamide-AEEA-Lys(PEG3CH2CO-γGlu-octadecanedioic acid)-NH2]", "Relative Activity %": 17.7}
{"molecule": "CCOc1ccc(C[C@@H](NC(=O)[C@H](N)Cc2ccccc2)C(=O)N[C@H](CC(C)C)C(=O)N[C@H](CCCCN)C(=O)N2CCC(N)(C(=O)NCCOCCOCC(=O)N[C@@H](CCCCNC(=O)COCCOCCOCCOCCOCCNC(=O)CC[C@H](NC(=O)CCCCCCCCCCCCCCCCC(=O)O)C(=O)O)C(N)=O)CC2)cc1", "note": "[Compound 9, D-Phe-D-Tyr(Et)-D-Leu-D-Lys-4-aminopiperidine-4-carboxamide-AEEA-Lys(PEG5CH2CO-γGlu-octadecanedioic acid)-NH2]", "Relative Activity %": 16.4}
{"molecule": "CCOc1ccc(C[C@@H](NC(=O)[C@H](N)Cc2ccccc2)C(=O)N[C@H](CC(C)C)C(=O)N[C@H](CCCCN)C(=O)N2CCC(N)(C(=O)NCC(=O)N[C@@H](CCCCNC(=O)COCCOCCOCCOCCNC(=O)CC[C@H](NC(=O)CCCCCCCCCCCCCCCCC(=O)O)C(=O)O)C(N)=O)CC2)cc1", "note": "[Compound 10, D-Phe-D-Tyr(Et)-D-Leu-D-Lys-4-aminopiperidine-4-carboxamide-Gly-Lys(PEG4CH2CO-γGlu-octadecanedioic acid)-NH2]", "Relative Activity %": 15.1}
{"molecule": "CCOc1ccc(C[C@@H](NC(=O)[C@H](N)Cc2ccccc2)C(=O)N[C@H](CC(C)C)C(=O)N[C@H](CCCCN)C(=O)N2CCC(N)(C(=O)NCC(=O)NCC(=O)N[C@@H](CCCCNC(=O)COCCOCCOCCOCCNC(=O)CC[C@H](NC(=O)CCCCCCCCCCCCCCCCC(=O)O)C(=O)O)C(N)=O)CC2)cc1", "note": "[Compound 11, D-Phe-D-Tyr(Et)-D-Leu-D-Lys-4-aminopiperidine-4-carboxamide-Gly-Gly-Lys(PEG4CH2CO-γGlu-octadecanedioic acid)-NH2] (I: H-[Api]GGK(X1)-NH2 / II: H-[dF][dY](Et)[dL][dK]; amide I:1-II:C; N-terminus assumed)", "Relative Activity %": 16.9}
{"molecule": "CCOc1ccc(C[C@@H](NC(=O)[C@H](N)Cc2ccccc2)C(=O)N[C@H](CC2CC2)C(=O)N[C@H](CCCCN)C(=O)N2CCC(N)(C(=O)NCCOCCOCC(=O)N[C@@H](CCCCNC(=O)COCCOCCOCCOCCNC(=O)CC[C@H](NC(=O)CCCCCCCCCCCCCCCCC(=O)O)C(=O)O)C(N)=O)CC2)cc1", "note": "[Compound 12, D-Phe-D-Tyr(Et)-D-Cyclopropylalanine-D-Lys-4-aminopiperidine-4-carboxamide-AEEA-Lys(PEG4CH2CO-γGlu-octadecanedioic acid)-NH2]", "Relative Activity %": 15.2}
{"test_system": "not listed separately", "test": "Preliminary pharmacokinetic properties after subcutaneous administration", "assay_type": "in vivo", "details": "cynomolgus monkey; male Macaca fascicularis, subcutaneous (SC), 0.1 mg/kg, plasma, LC-MS; read-out: t½ (converted)", "experimental": "The compound with the best activity was selected for determination of its preliminary pharmacokinetic properties. Two male Macaca fascicularis were used as experimental animals. A subcutaneous administration was performed at a dose of 0.1 mg/kg. Venous blood samples were collected before administration (0 h) and at 1 h, 2 h, 3 h, 4 h, 8 h, 12 h, 18 h, 24 h, 48 h, 96 h, 144 h, and 168 h post-administration. Plasma samples were separated by centrifugation. The plasma concentration of the compound in the plasma samples was determined using liquid chromatography-mass spectrometry.", "units": {"half-life": "h"}}
{"molecule": "CCOc1ccc(C[C@@H](NC(=O)[C@H](N)Cc2ccccc2)C(=O)N[C@H](CC(C)C)C(=O)N[C@H](CCCCN)C(=O)N2CCC(N)(C(=O)NCCOCCOCC(=O)N[C@@H](CCCCNC(=O)COCCOCCOCCOCCNC(=O)CC[C@H](NC(=O)CCCCCCCCCCCCCCCCC(=O)O)C(=O)O)C(N)=O)CC2)cc1", "note": "[Compound 3, D-Phe-D-Tyr(Et)-D-Leu-D-Lys-4-aminopiperidine-4-carboxamide-AEEA-Lys(PEG4CH2CO-γGlu-octadecanedioic acid)-NH2]", "half-life": 55.1}
